Reference: US10077261B2, “Imidazolin-5-one derivative useful as FASN inhibitors for the treatment of cancer” (Janssen Pharmaceutica NV, priority 2012, dated 2018)

Tests used:
[1] = target: T1, hFASN enzyme (full length) (Homo sapiens, UniProt P49327); assay: Fatty Acid Synthase (FASN) inhibition scintillation proximity assay; format: biochemical; settings: for inhibition at 10 µM: read-out: Human FASN % inhibition @ 10 μM, 10 μM test compound; for IC50: read-out: Human FASN pIC50 (converted)
T1 construct: 10 μL hFASN enzyme (full length, 300 ng, purified in house); made in house
T1 sequence (P49327 whole entry): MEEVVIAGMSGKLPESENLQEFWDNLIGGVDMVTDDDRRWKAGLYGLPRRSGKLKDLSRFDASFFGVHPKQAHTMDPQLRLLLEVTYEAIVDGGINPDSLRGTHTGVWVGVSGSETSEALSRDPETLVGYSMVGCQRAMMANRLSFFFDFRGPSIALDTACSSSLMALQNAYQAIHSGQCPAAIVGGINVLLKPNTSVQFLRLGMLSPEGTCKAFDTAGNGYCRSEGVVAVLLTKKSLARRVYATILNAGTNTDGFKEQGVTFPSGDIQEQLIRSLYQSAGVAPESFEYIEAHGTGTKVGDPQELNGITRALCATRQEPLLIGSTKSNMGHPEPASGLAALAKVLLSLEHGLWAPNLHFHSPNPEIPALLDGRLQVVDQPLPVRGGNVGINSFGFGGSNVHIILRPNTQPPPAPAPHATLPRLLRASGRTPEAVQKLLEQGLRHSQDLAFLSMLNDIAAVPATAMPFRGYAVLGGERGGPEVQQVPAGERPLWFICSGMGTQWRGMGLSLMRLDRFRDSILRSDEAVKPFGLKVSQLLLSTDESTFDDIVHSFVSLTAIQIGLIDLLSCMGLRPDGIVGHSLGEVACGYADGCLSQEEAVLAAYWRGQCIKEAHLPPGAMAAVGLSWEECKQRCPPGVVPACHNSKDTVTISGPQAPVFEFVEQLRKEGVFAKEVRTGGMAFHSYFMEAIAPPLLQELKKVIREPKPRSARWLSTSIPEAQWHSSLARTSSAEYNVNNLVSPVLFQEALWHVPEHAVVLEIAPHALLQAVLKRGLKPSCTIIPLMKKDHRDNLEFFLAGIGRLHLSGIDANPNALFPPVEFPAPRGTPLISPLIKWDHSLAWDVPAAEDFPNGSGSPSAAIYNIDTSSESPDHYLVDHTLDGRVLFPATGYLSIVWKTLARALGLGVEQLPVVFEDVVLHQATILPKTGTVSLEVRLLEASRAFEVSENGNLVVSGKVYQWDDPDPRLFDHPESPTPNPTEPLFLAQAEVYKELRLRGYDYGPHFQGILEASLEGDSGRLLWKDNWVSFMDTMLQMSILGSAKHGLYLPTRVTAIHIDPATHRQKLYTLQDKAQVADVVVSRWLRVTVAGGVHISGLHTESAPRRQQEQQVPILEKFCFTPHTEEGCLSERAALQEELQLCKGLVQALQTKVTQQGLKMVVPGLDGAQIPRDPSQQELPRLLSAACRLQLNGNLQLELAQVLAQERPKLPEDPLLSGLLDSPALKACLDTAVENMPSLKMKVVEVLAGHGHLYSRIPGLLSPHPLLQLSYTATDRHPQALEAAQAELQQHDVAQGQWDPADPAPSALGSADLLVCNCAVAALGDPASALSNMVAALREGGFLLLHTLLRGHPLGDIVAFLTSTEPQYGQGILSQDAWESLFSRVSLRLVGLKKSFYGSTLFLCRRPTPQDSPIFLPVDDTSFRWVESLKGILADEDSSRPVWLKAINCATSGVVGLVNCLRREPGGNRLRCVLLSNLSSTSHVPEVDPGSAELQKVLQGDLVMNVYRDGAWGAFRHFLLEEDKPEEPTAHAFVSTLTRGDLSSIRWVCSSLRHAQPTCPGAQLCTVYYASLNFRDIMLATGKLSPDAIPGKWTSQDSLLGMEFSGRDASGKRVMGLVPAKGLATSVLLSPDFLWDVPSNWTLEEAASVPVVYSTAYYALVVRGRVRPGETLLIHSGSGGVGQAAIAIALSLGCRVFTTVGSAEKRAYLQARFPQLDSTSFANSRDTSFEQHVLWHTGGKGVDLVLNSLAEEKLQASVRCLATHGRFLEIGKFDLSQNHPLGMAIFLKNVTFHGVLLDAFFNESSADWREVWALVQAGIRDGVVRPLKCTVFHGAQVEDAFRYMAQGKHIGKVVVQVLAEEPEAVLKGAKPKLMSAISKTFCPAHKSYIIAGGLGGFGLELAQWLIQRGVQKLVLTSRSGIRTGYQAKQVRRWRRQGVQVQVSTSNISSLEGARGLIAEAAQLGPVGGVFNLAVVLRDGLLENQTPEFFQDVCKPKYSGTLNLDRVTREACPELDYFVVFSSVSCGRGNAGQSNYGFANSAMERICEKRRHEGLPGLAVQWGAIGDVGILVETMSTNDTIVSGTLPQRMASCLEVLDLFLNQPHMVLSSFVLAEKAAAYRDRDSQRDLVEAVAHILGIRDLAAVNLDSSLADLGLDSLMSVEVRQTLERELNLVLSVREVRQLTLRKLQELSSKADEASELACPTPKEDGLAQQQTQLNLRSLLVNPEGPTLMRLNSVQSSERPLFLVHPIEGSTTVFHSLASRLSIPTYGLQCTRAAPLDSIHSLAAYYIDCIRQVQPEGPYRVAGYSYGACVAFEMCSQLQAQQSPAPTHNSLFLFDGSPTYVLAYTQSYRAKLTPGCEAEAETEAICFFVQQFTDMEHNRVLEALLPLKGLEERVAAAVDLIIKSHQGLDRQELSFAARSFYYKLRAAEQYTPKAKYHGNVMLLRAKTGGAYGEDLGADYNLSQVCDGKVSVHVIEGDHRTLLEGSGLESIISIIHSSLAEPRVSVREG
Summary of the method: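 Read-out relies on hydrophobic ³H-palmitate product, formed from ³H-acetyl-CoA and malonyl-CoA, binding streptavidin imaging beads, measured at 610±20 nm after at least 24 h. Full-length enzyme (300 ng) in phosphate buffer pH 7.5 with DTT; eight compound concentrations, 0.01–30 μM.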

[2] = tested on: A2780 ovarian cells; assay: A2780 ovarian cell proliferation assay in lipid reduced medium, with palmitate (MTT); format: cell-based; settings: Homo sapiens, A2780, 96 h; read-out: pIC50 A2780 Ovarian Cell, With Palmitate (converted)
Summary of the method: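 In this palmitate-supplemented format, compound dilutions (30 μM down to 0.01 μM) are added to cells in lipid-reduced serum with 25 μM palmitate, 0.2% fatty-acid-free BSA and 0.25% ethanol. After four days (96 h) MTT absorbance at 544 nm is recorded and fitted by minimum sum of squares.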

[3] = tested on: A2780 ovarian cells; assay: A2780 ovarian cell proliferation assay in lipid reduced medium, without palmitate (MTT); format: cell-based; settings: Homo sapiens, A2780, 96 h; read-out: pIC50 A2780 Ovarian Cell, Without Palmitate (converted)
[4] = tested on: LNCaP-Vancouver prostate cells; assay: In vitro LNCaP Vancouver prostate cell proliferation assay in lipid reduced medium; format: cell-based; settings: read-out: pIC50 LNCaP_Vancouver prostate cell (converted)
[5] = tested on: PC-3M-Luc-C6 prostate cells; assay: In vitro PC-3M-Luc-C6 prostate cell proliferation assay in lipid reduced medium; format: cell-based; settings: 96 h, read-out: pIC50 PC-3M-Luc-C6 prostate cell (converted)
[6] = target: Fatty Acid Synthase Keto-reductase Domain (FASN KR) (Homo sapiens, UniProt P49327); assay: Fatty Acid Synthase keto-reductase domain (FASN KR) inhibition, NADPH oxidation at 340 nm
Fatty Acid Synthase Keto-reductase Domain (FASN KR), sequence (P49327 whole entry, the tested form may be a part): as the sequence (P49327 whole entry) above
Method: After 20 minutes incubation at room temperature the plate was measured again (T2).
The decrease in absorbance was calculated as (Absorbance before incubation T1)−(Absorbance following incubation T2).
A plot of Controlmin versus test compound concentration was fitted to a 4-parameter logistic curve using a non-linear least squares regression method.

## O=C(C1CC1)N1CC(CN2C(=O)C3(CC3)N=C2c2ccc(-c3nc4cc(F)c(F)cc4s3)cc2F)C1 [compound 639, 6-{[1-(Cyclopropylcarbonyl)azetidin-3-yl]methyl}-5-[4-(5,6-difluoro-1,3-benzothiazol-2-yl)-2-fluorophenyl]-4,6-diazaspiro[2.4]hept-4-en-7-one]
[1]
  inhibition at 10 µM: 97%
  IC50: 282 nM
[2]
  IC50: > 10000 nM
[3]
  IC50: ~363 nM
[4]
  IC50: 2340 nM
[5]
  IC50: 794 nM
[6]
  IC50: 1450 nM

## O=C(C1CC1)N1CC(CN2C(=O)C3(CC3)N=C2c2ccc(-c3cccc(SC4CC4)c3)cc2F)C1 [compound 645, 6-{[1-(Cyclopropylcarbonyl)azetidin-3-yl]methyl}-5-[3′-(cyclopropylsulfanyl)-3-fluorobiphenyl-4-yl]-4,6-diazaspiro[2.4]hept-4-en-7-one]
[1]
  inhibition at 10 µM: 100%
  IC50: 275 nM
[2]
  IC50: > 10000 nM
[3]
  IC50: ~2040 nM
[4]
  IC50: 3470 nM
[5]
  IC50: 1740 nM
[6]
  IC50: 676 nM

## O=C(C1CC1)N1CC[C@@H](CN2C(=O)C3(CC3)N=C2c2ccc(-c3cccc(S(=O)(=O)C4CC4)c3)cc2F)C1 [compound 647, 6-{[(3R)-1-(Cyclopropylcarbonyl)pyrrolidin-3-yl]methyl}-5-[3′-(cyclopropylsulfonyl)-3-fluorobiphenyl-4-yl]-4,6-diazaspiro[2.4]hept-4-en-7-one]
[1]
  inhibition at 10 µM: 91%
  IC50: 631 nM
[2]
  IC50: > 10000 nM
[3]
  IC50: 1950 nM
[4]
  IC50: 5130 nM
[5]
  IC50: 1740 nM
[6]
  IC50: 1380 nM

## O=C(C1CC1)N1CC(CN2C(=O)C3(CC3)N=C2c2ccc(-c3nc4ccc(Cl)cc4o3)cc2F)C1 [compound 649, 5-[4-(6-Chloro-1,3-benzoxazol-2-yl)-2-fluorophenyl]-6-{[1-(cyclopropylcarbonyl)azetidin-3-yl]methyl}-4,6-diazaspiro[2.4]hept-4-en-7-one]
[1]
  inhibition at 10 µM: 97%
  IC50: 158 nM
[2]
  IC50: 7410 nM
[3]
  IC50: 200 nM
[4]
  IC50: 1740 nM
[5]
  IC50: 437 nM
[6]
  IC50: 372 nM

## O=C(C1CC1)N1CC[C@@H](CN2C(=O)C3(CCOCC3)N=C2c2ccc(-c3ccc4cccnc4c3)cc2)C1 [compound 661, 3-{[(3R)-1-(Cyclopropylcarbonyl)pyrrolidin-3-yl]methyl}-2-(4-quinolin-7-ylphenyl)-8-oxa-1,3-diazaspiro[4.5]dec-1-en-4-one]
[1]
  inhibition at 10 µM: 95%
  IC50: 58.9 nM
[2]
  IC50: > 10000 nM
[3]
  IC50: 42.7 nM
[4]
  IC50: 191 nM
[5]
  IC50: ~79.4 nM
[6]
  IC50: 132 nM

## CC(O)C(=O)N1CC[C@@H](CN2C(=O)C3(CCOCC3)N=C2c2ccc(-c3ccc4cccnc4c3)cc2)C1 (stereo partly drawn) [compound 662, 3-{[(3R)-1-(2-Hydroxypropanoyl)pyrrolidin-3-yl]methyl}-2-(4-quinolin-7-ylphenyl)-8-oxa-1,3-diazaspiro[4.5]dec-1-en-4-one]
[1]
  inhibition at 10 µM: 98%
  IC50: 302 nM
[2]
  IC50: > 10000 nM
[3]
  IC50: 457 nM
[4]
  IC50: 2880 nM
[5]
  IC50: 708 nM
[6]
  IC50: 617 nM

## O=C(N1CCCC1)N1CC[C@@H](CN2C(=O)C3(CCOCC3)N=C2c2ccc(-c3ccc4cccnc4c3)cc2)C1 [compound 665, 3-{[(3S)-1-(Pyrrolidin-1-ylcarbonyl)pyrrolidin-3-yl]methyl}-2-(4-quinolin-7-ylphenyl)-8-oxa-1,3-diazaspiro[4.5]dec-1-en-4-one]
[1]
  inhibition at 10 µM: 94%
  IC50: 324 nM
[2]
  IC50: > 10000 nM
[3]
  IC50: 550 nM
[4]
  IC50: 1230 nM
[5]
  IC50: 794 nM
[6]
  IC50: 631 nM

## Cn1cc(-c2ccc(-c3ccc(C4=NC5(CCOC5)C(=O)N4C[C@@H]4CCN(C(=O)[C@H]5CCCO5)C4)cc3)cc2)cn1 (stereo partly drawn) [compound 678, 2-[4′-(1-Methyl-1H-pyrazol-4-yl)biphenyl-4-yl]-3-({(3R)-1-[(2R)-tetrahydro-furan-2-ylcarbonyl]pyrrolidin-3-yl}methyl)-7-oxa-1,3-diazaspiro[4.4]non-1-en-4-one]
[1]
  inhibition at 10 µM: 95%
  IC50: 372 nM
[2]
  IC50: > 10000 nM
[3]
  IC50: 676 nM
[4]
  IC50: 3310 nM
[5]
  IC50: 891 nM
[6]
  IC50: 832 nM

## CC(O)C(=O)N1CC[C@@H](CN2C(=O)C3(CCOC3)N=C2c2ccc(-c3ccc4cccnc4c3)cc2)C1 (stereo partly drawn) [compound 681, 3-{[(3R)-1-(2-Hydroxypropanoyl)pyrrolidin-3-yl]methyl}-2-(4-quinolin-7-ylphenyl)-7-oxa-1,3-diazaspiro[4.4]non-1-en-4-one]
[1]
  inhibition at 10 µM: 91%
  IC50: 295 nM
[2]
  IC50: > 10000 nM
[3]
  IC50: 794 nM
[4]
  IC50: 4900 nM
[5]
  IC50: 1380 nM
[6]
  IC50: 1380 nM

## O=C([C@H]1CCCO1)N1CC[C@@H](CN2C(=O)C3(CCOC3)N=C2c2ccc(-c3ccc4cccnc4c3)cc2)C1 (stereo partly drawn) [compound 682, 2-(4-Quinolin-7-ylphenyl)-3-({(3R)-1-[(2R)-tetrahydro-furan-2-ylcarbonyl]pyrrolidin-3-yl}methyl)-7-oxa-1,3-diazaspiro[4.4]non-1-en-4-one]
[1]
  inhibition at 10 µM: 96%
  IC50: 115 nM
[2]
  IC50: > 10000 nM
[3]
  IC50: 117 nM
[4]
  IC50: 1000 nM
[5]
  IC50: 219 nM
[6]
  IC50: 182 nM

## O=C(N1CCCC1)N1CC[C@@H](CN2C(=O)C3(CCOC3)N=C2c2ccc(-c3ccc4cccnc4c3)cc2)C1 (stereo partly drawn) [compound 685, 3-{[(3S)-1-(Pyrrolidin-1-ylcarbonyl)pyrrolidin-3-yl]methyl}-2-(4-quinolin-7-ylphenyl)-7-oxa-1,3-diazaspiro[4.4]non-1-en-4-one]
[1]
  inhibition at 10 µM: 84%
  IC50: 851 nM
[2]
  IC50: > 10000 nM
[3]
  IC50: 1230 nM
[4]
  IC50: 3020 nM
[5]
  IC50: 1170 nM
[6]
  IC50: 1620 nM

## O=C(C1CC1)N1CC(CN2C(=O)C3(CCOCC3)N=C2c2ccc(-c3ccc4cccnc4c3)cc2)C1 [compound 698, 3-{[1-(Cyclopropylcarbonyl)azetidin-3-yl]methyl}-2-(4-quinolin-7-ylphenyl)-8-oxa-1,3-diazaspiro[4.5]dec-1-en-4-one]
[1]
  inhibition at 10 µM: 92%
  IC50: 251 nM
[2]
  IC50: > 10000 nM
[3]
  IC50: 380 nM
[4]
  IC50: 2630 nM
[5]
  IC50: 575 nM
[6]
  IC50: 457 nM

## O=C([C@H]1CCCO1)N1CC(CN2C(=O)C3(CCOCC3)N=C2c2ccc(-c3ccc4cccnc4c3)cc2)C1 [compound 700, 2-(4-Quinolin-7-ylphenyl)-3-({1-[(2R)-tetrahydro-furan-2-ylcarbonyl]azetidin-3-yl}methyl)-8-oxa-1,3-diazaspiro[4.5]dec-1-en-4-one]
[1]
  inhibition at 10 µM: 94%
  IC50: 240 nM
[2]
  IC50: > 10000 nM
[3]
  IC50: 468 nM
[4]
  IC50: 3390 nM
[5]
  IC50: 1000 nM
[6]
  IC50: 832 nM

## O=C(N1CCCC1)N1CC(CN2C(=O)C3(CCOCC3)N=C2c2ccc(-c3ccc4cccnc4c3)cc2)C1 [compound 701, 3-{[1-(Pyrrolidin-1-ylcarbonyl)azetidin-3-yl]methyl}-2-(4-quinolin-7-ylphenyl)-8-oxa-1,3-diazaspiro[4.5]dec-1-en-4-one]
[1]
  inhibition at 10 µM: 95%
  IC50: 479 nM
[2]
  IC50: > 10000 nM
[3]
  IC50: 891 nM
[4]
  IC50: 4570 nM
[5]
  IC50: 1260 nM
[6]
  IC50: 3890 nM

## O=C(C1CC1)N1CC(CN2C(=O)C3(CCOC3)N=C2c2ccc(-c3ccc4cccnc4c3)cc2)C1 (centres unmarked) [compound 714, 3-{[1-(Cycloprppylcarbonyl)azetidin-3-yl]methyl}-2-(4-quinolin-7-ylphenyl)-7-oxa-1,3-diazaspiro[4.4]non-1-en-4-one]
[1]
  inhibition at 10 µM: 89%
  IC50: 363 nM
[2]
  IC50: > 10000 nM
[3]
  IC50: 933 nM
[4]
  IC50: 5250 nM
[5]
  IC50: 794 nM
[6]
  IC50: 1510 nM

## O=C(N1CCCC1)N1CC(CN2C(=O)C3(CCOC3)N=C2c2ccc(-c3ccc4cccnc4c3)cc2)C1 (centres unmarked) [compound 717, 3-{[1-(Pyrrolidin-1-ylcarbonyl)azetidin-3-yl]methyl}-2-(4-quinolin-7-ylphenyl)-7-oxa-1,3-diazaspiro[4.4]non-1-en-4-one]
[1]
  inhibition at 10 µM: 87%
  IC50: 676 nM
[2]
  IC50: > 10000 nM
[3]
  IC50: 1620 nM
[4]
  IC50: 5010 nM
[5]
  IC50: 1700 nM
[6]
  IC50: 2000 nM

## COC(=O)N1CC2(C1)N=C(c1ccc(-c3ccc4cccnc4c3)cc1)N(C[C@@H]1CCN(C(=O)C(C)O)C1)C2=O (stereo partly drawn) [compound 729, Methyl 7-{[(3R)-1-(2-hydroxypropanoyl)pyrrolidin-3-yl]methyl}-8-oxo-6-(4-quinolin-7-ylphenyl)-2,5,7-triazaspiro[3.4]oct-5-ene-2-carboxylate]
[1]
  inhibition at 10 µM: 95%
  IC50: 309 nM
[2]
  IC50: > 10000 nM
[3]
  IC50: 1290 nM
[4]
  IC50: 8710 nM
[5]
  IC50: 1450 nM
[6]
  IC50: 813 nM
